System: LG0703-F498-PDC complex spheroid growth
Experiment: Anticancer human tumor LG0703-F498-PDC patient-derived lung adenocarcinoma cell line growth inhibition [AhR]
Conditions: for IC50: curve of first compound; for viability, T/C: stronger effect = lower value
Method in brief: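 Spheroids combined tumor cells with HUVEC endothelial cells and human MSCs as stroma. AhR antagonists were paired with standard or investigational drugs, each dosed in half-log steps down from near clinical Cmax, or from 10 microM where Cmax was unknown.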

[1] = second compound 0.1 µM, first compound 0.0316 µM
[2] = second compound 0.1 µM, first compound 0.1 µM
[3] = second compound 0.1 µM, first compound 0.316 µM
[4] = second compound 0.1 µM, first compound 1 µM
[5] = second compound 0.1 µM, first compound 3.16 µM
[6] = second compound 0.1 µM, first compound 10 µM
[7] = second compound 0.316 µM, first compound 0.0316 µM
[8] = second compound 0.316 µM, first compound 0.1 µM
[9] = second compound 0.316 µM, first compound 0.316 µM
[10] = second compound 0.316 µM, first compound 1 µM
[11] = second compound 0.316 µM, first compound 3.16 µM
[12] = second compound 0.316 µM, first compound 10 µM
[13] = second compound 1 µM, first compound 0.0316 µM
[14] = second compound 1 µM, first compound 0.1 µM
[15] = second compound 1 µM, first compound 0.316 µM
[16] = second compound 1 µM, first compound 1 µM
[17] = second compound 1 µM, first compound 3.16 µM
[18] = second compound 1 µM, first compound 10 µM
[19] = second compound 3.16 µM, first compound 0.0316 µM
[20] = second compound 3.16 µM, first compound 0.1 µM
[21] = second compound 3.16 µM, first compound 0.316 µM
[22] = second compound 3.16 µM, first compound 1 µM
[23] = second compound 3.16 µM, first compound 3.16 µM
[24] = second compound 3.16 µM, first compound 10 µM
[25] = second compound 10 µM, first compound 0.0316 µM
[26] = second compound 10 µM, first compound 0.1 µM
[27] = second compound 10 µM, first compound 0.316 µM
[28] = second compound 10 µM, first compound 1 µM
[29] = second compound 10 µM, first compound 3.16 µM
[30] = second compound 10 µM, first compound 10 µM
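Further: luminescence taken as a proxy for viable cell amount.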
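Wherever viability, T/C is given: percent of DMSO vehicle control where 100% means growth equal to vehicle.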

With `CC(C)CC(NC(=O)C(Cc1ccccc1)NC(=O)c1cnccn1)B(O)O` (stereo not given) + Cc1cncc(-c2nc(NCCc3c[nH]c4ccccc34)c3ncn(C(C)C)c3n2)c1 the IC50 (second compound 0.1 µM) was 4.06 nM, the IC50 (second compound 0.316 µM) was 4.36 nM and the IC50 (second compound 1 µM) was 3.62 nM. The IC50 (second compound 3.16 µM) was 1.12 nM, the IC50 (second compound 10 µM) was < 0.949 nM and the viability, T/C (second compound 0.1 µM, first compound 0.000949 µM) was 90.8%. For the same compound, the viability, T/C (second compound 0.1 µM, first compound 0.003 µM) was 65.4%, the viability, T/C (second compound 0.1 µM, first compound 0.00949 µM) was 6.78% and the viability, T/C (second compound 0.1 µM, first compound 0.03 µM) was 0.57%. The viability, T/C (second compound 0.1 µM, first compound 0.0949 µM) was 0.07%, the viability, T/C (second compound 0.1 µM, first compound 0.3 µM) was 0.18% and the viability, T/C (second compound 0.316 µM, first compound 0.000949 µM) was 101%. For the same compound, the viability, T/C (second compound 0.316 µM, first compound 0.003 µM) was 71.3%, the viability, T/C (second compound 0.316 µM, first compound 0.00949 µM) was 5.68% and the viability, T/C (second compound 0.316 µM, first compound 0.03 µM) was 0.52%. The viability, T/C (second compound 0.316 µM, first compound 0.0949 µM) was 0.13%, the viability, T/C (second compound 0.316 µM, first compound 0.3 µM) was 0.41% and the viability, T/C (second compound 1 µM, first compound 0.000949 µM) was 115%. For the same compound, the viability, T/C (second compound 1 µM, first compound 0.003 µM) was 58.9%, the viability, T/C (second compound 1 µM, first compound 0.00949 µM) was 4.01% and the viability, T/C (second compound 1 µM, first compound 0.03 µM) was 0.74%. The viability, T/C (second compound 1 µM, first compound 0.0949 µM) was 0.04%, the viability, T/C (second compound 1 µM, first compound 0.3 µM) was 0.35% and the viability, T/C (second compound 3.16 µM, first compound 0.000949 µM) was 52.8%. It also gave a viability, T/C (second compound 3.16 µM, first compound 0.003 µM) of 33.7%, a viability, T/C (second compound 3.16 µM, first compound 0.00949 µM) of 1.21% and a viability, T/C (second compound 3.16 µM, first compound 0.03 µM) of 0.06%. For the same compound, the viability, T/C (second compound 3.16 µM, first compound 0.0949 µM) was 0.5%, the viability, T/C (second compound 3.16 µM, first compound 0.3 µM) was 0.67% and the viability, T/C (second compound 10 µM, first compound 0.000949 µM) was 1.32%. For the same compound, the viability, T/C (second compound 10 µM, first compound 0.003 µM) was 0.98%, the viability, T/C (second compound 10 µM, first compound 0.00949 µM) was 0.8% and the viability, T/C (second compound 10 µM, first compound 0.03 µM) was 0.13%. It also gave a viability, T/C (second compound 10 µM, first compound 0.0949 µM) of 1.1% and a viability, T/C (second compound 10 µM, first compound 0.3 µM) of 1.18%.
In the case of `COc1cc(Nc2ncc3c(n2)-c2ccc(Cl)cc2C(c2c(F)cccc2OC)=NC3)ccc1C(=O)O` + Cc1cncc(-c2nc(NCCc3c[nH]c4ccccc34)c3ncn(C(C)C)c3n2)c1, the IC50 (second compound 0.1 µM) is reported as 3970 nM, the IC50 (second compound 0.316 µM) is reported as 5260 nM and the IC50 (second compound 1 µM) is reported as 2830 nM. For the same compound, the IC50 (second compound 3.16 µM) was < 31.6 nM, the IC50 (second compound 10 µM) was < 31.6 nM and the viability, T/C [1] was 88.6%. The viability, T/C [2] was 77.1%, the viability, T/C [3] was 65.4% and the viability, T/C [4] was 65.8%. For the same compound, the viability, T/C [5] was 60.2%, the viability, T/C [6] was 35% and the viability, T/C [7] was 81.8%. For the same compound, the viability, T/C [8] was 80.5%, the viability, T/C [9] was 58.9% and the viability, T/C [10] was 78.2%. It also gave a viability, T/C [11] of 58.1%, a viability, T/C [12] of 38.2% and a viability, T/C [13] of 94.4%. It also gave a viability, T/C [14] of 70.7%, a viability, T/C [15] of 63% and a viability, T/C [16] of 63.7%. The viability, T/C [17] was 55.9%, the viability, T/C [18] was 35.1% and the viability, T/C [19] was 45.7%. It also gave a viability, T/C [20] of 33.3%, a viability, T/C [21] of 38.1% and a viability, T/C [22] of 34.6%. The viability, T/C [23] was 18.9%, the viability, T/C [24] was 10.2% and the viability, T/C [25] was 1.81%. For the same compound, the viability, T/C [26] was 1.7%, the viability, T/C [27] was 2.07% and the viability, T/C [28] was 1.87%. For the same compound, the viability, T/C [29] was 1.84% and the viability, T/C [30] was 3.35%.
With `Cn1ncnc1C1c2n[nH]c(=O)c3cc(F)cc(c23)NC1c1ccc(F)cc1` (stereo not given) + Cc1cncc(-c2nc(NCCc3c[nH]c4ccccc34)c3ncn(C(C)C)c3n2)c1 the IC50 (second compound 0.1 µM) was > 100 nM, the IC50 (second compound 0.316 µM) was > 100 nM and the IC50 (second compound 1 µM) was > 100 nM. The IC50 (second compound 3.16 µM) was < 0.316 nM, the IC50 (second compound 10 µM) was < 0.316 nM and the viability, T/C (second compound 0.1 µM, first compound 0.000316 µM) was 101%. It also gave a viability, T/C (second compound 0.1 µM, first compound 0.001 µM) of 93.3%, a viability, T/C (second compound 0.1 µM, first compound 0.00316 µM) of 93.2% and a viability, T/C (second compound 0.1 µM, first compound 0.01 µM) of 93.8%. The viability, T/C [1] was 91.3%, the viability, T/C [2] was 82.6% and the viability, T/C (second compound 0.316 µM, first compound 0.000316 µM) was 94.6%. It also gave a viability, T/C (second compound 0.316 µM, first compound 0.001 µM) of 108%, a viability, T/C (second compound 0.316 µM, first compound 0.00316 µM) of 98.4% and a viability, T/C (second compound 0.316 µM, first compound 0.01 µM) of 98.5%. The viability, T/C [7] was 104%, the viability, T/C [8] was 89.1% and the viability, T/C (second compound 1 µM, first compound 0.000316 µM) was 103%. The viability, T/C (second compound 1 µM, first compound 0.001 µM) was 116%, the viability, T/C (second compound 1 µM, first compound 0.00316 µM) was 100% and the viability, T/C (second compound 1 µM, first compound 0.01 µM) was 106%. For the same compound, the viability, T/C [13] was 109%, the viability, T/C [14] was 95.7% and the viability, T/C (second compound 3.16 µM, first compound 0.000316 µM) was 49.3%. For the same compound, the viability, T/C (second compound 3.16 µM, first compound 0.001 µM) was 47%, the viability, T/C (second compound 3.16 µM, first compound 0.00316 µM) was 58.2% and the viability, T/C (second compound 3.16 µM, first compound 0.01 µM) was 42.4%. It also gave a viability, T/C [19] of 48%, a viability, T/C [20] of 54% and a viability, T/C (second compound 10 µM, first compound 0.000316 µM) of 1.14%. The viability, T/C (second compound 10 µM, first compound 0.001 µM) was 1.01%, the viability, T/C (second compound 10 µM, first compound 0.00316 µM) was 1.11% and the viability, T/C (second compound 10 µM, first compound 0.01 µM) was 1.03%. The viability, T/C [25] was 1.15% and the viability, T/C [26] was 1.54%.
`NS(=O)(=O)OCC1CC(n2ccc3c(NC4CCc5ccccc54)ncnc32)CC1O` (stereo not given) + Cc1cncc(-c2nc(NCCc3c[nH]c4ccccc34)c3ncn(C(C)C)c3n2)c1 was tested, and the IC50 (second compound 0.1 µM) was 3930 nM, the IC50 (second compound 0.316 µM) was 2730 nM and the IC50 (second compound 1 µM) was 2200 nM. The IC50 (second compound 3.16 µM) was 725 nM, the IC50 (second compound 10 µM) was < 31.6 nM and the viability, T/C [1] was 105%. The viability, T/C [2] was 113%, the viability, T/C [3] was 66.7% and the viability, T/C [4] was 101%. For the same compound, the viability, T/C [5] was 44%, the viability, T/C [6] was 30.7% and the viability, T/C [7] was 113%. The viability, T/C [8] was 97.3%, the viability, T/C [9] was 53.3% and the viability, T/C [10] was 97.2%. The viability, T/C [11] was 39.8%, the viability, T/C [12] was 28.9% and the viability, T/C [13] was 111%. For the same compound, the viability, T/C [14] was 79.7%, the viability, T/C [15] was 54% and the viability, T/C [16] was 106%. It also gave a viability, T/C [17] of 32.6%, a viability, T/C [18] of 26.2% and a viability, T/C [19] of 70.9%. For the same compound, the viability, T/C [20] was 70.1%, the viability, T/C [21] was 50% and the viability, T/C [22] was 55.4%. For the same compound, the viability, T/C [23] was 27.2%, the viability, T/C [24] was 16.9% and the viability, T/C [25] was 2.35%. It also gave a viability, T/C [26] of 3.18%, a viability, T/C [27] of 6.94% and a viability, T/C [28] of 2.85%. The viability, T/C [29] was 6.79% and the viability, T/C [30] was 5.98%.
`O=C(C=Cc1cccc(S(=O)(=O)Nc2ccccc2)c1)NO` + Cc1cncc(-c2nc(NCCc3c[nH]c4ccccc34)c3ncn(C(C)C)c3n2)c1 gave an IC50 (second compound 0.1 µM) of 619 nM, an IC50 (second compound 0.316 µM) of 657 nM and an IC50 (second compound 1 µM) of 523 nM. For the same compound, the IC50 (second compound 3.16 µM) was 423 nM, the IC50 (second compound 10 µM) was < 31.6 nM and the viability, T/C [1] was 118%. It also gave a viability, T/C [2] of 115%, a viability, T/C [3] of 75.8% and a viability, T/C [4] of 30.8%. It also gave a viability, T/C [5] of 10.1%, a viability, T/C [6] of 1.27% and a viability, T/C [7] of 111%. The viability, T/C [8] was 104%, the viability, T/C [9] was 81.1% and the viability, T/C [10] was 32%. For the same compound, the viability, T/C [11] was 7.58%, the viability, T/C [12] was 1.48% and the viability, T/C [13] was 106%. The viability, T/C [14] was 108%, the viability, T/C [15] was 69.3% and the viability, T/C [16] was 23.6%. It also gave a viability, T/C [17] of 6.31%, a viability, T/C [18] of 0.83% and a viability, T/C [19] of 59.9%. It also gave a viability, T/C [20] of 71.5%, a viability, T/C [21] of 57.8% and a viability, T/C [22] of 25%. For the same compound, the viability, T/C [23] was 6.63%, the viability, T/C [24] was 1.68% and the viability, T/C [25] was 1.93%. It also gave a viability, T/C [26] of 2.88%, a viability, T/C [27] of 4.14% and a viability, T/C [28] of 8.01%. For the same compound, the viability, T/C [29] was 9.58% and the viability, T/C [30] was 1.55%.
